The experiment has as its target T1, VAV1 (Homo sapiens, UniProt P15498+Q96SW2).
T1 construct: A heterozygous VAV1 C-terminal HiBiT knock-in pool was generated at Monte Rosa Therapeutics from a clonal Jurkat cell; endogenous in cells; host or cells: Jurkat clone stably expressing LgBiT, homozygous GSPT1-G575N; heterozygous VAV1-HiBiT knock-in pool
The experiment is described as follows: VAV1 degradation activity, VAV1-HiBiT knock-in Jurkat luminescence assay (Example A, Table 1). Conditions: VAV1-HiBiT knock-in Jurkat cells; for Dmax: Jurkat. Format: cell-based. The gist of the method: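 Jurkat cells carrying VAV1-HiBiT knock-in, plated in RPMI/10% FBS with Endurazine live-cell substrate and pre-incubated ~16 h at 37° C. Compound dosed from 10 μM stock; luminescence read 6 and 24 h later. Response normalised to plate negative/positive controls, EC50 from 3-parameter logistic fit (hillslope 1).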
A general note: The HiBiT peptide binds its large partner to form an active luciferase.

[1] abbreviates: luminescence read at 6 and 24 hours, read-out: VAV1 Dmax %.
The mark [2] stands for this setting: luminescence read at 6 and 24 hours, read-out: VAV1 Dmax %, class.
The mark [3] stands for this setting: luminescence read at 6 and 24 hours, read-out: VAV1 DC50.
[4] abbreviates: luminescence read at 6 and 24 hours, read-out: VAV1 DC50 (nM), class.
[5] abbreviates: luminescence read at 6 and 24 hours after compound addition, read-out: VAV1 Dmax %.
Where [6] appears, read: luminescence read at 6 and 24 hours after compound addition, read-out: VAV1 Dmax %, class.
Setting [7] is: luminescence read at 6 and 24 hours after compound addition, read-out: VAV1 DC50.
[8] abbreviates: luminescence read at 6 and 24 hours after compound addition, read-out: VAV1 DC50 (nM), class.

Where two headings read alike, the source gives them in different places.

In the case of `O=C1CCC(c2cccc(-c3ccc(N4CCCCC4C(F)F)cc3)c2Cl)C(=O)N1` (stereo not shown) [Compound 469, 3-(2-chloro-4′-(2-(difluoromethyl)piperidin-1-yl)-[1,1′-biphenyl]-3-yl)piperidine-2,6-dione], the Dmax is 79.4% under setting [1] and 60 to 90% under setting [2]. Further, the DC50 by setting is: under setting [3], 266 nM; under setting [4], 100 to 1000 nM.

In the case of `O=C1CCC(c2cccc(-c3ccc(-n4ccccc4=O)c(F)c3)c2Cl)C(=O)N1` (stereo not shown) [Compound 470, 3-(2-chloro-3′-fluoro-4′-(2-oxopyridin-1(2H)-yl)-[1,1′-biphenyl]-3-yl)piperidine-2,6-dione], the Dmax by setting is: under setting [1], 97.1%; under setting [2], more than 90%. Also, the DC50 was 9.19 nM under setting [3] and not above 100 nM under setting [4].

Regarding `O=C1CCC(c2cccc(-c3ccc(-n4cccnc4=O)cc3)c2Cl)C(=O)N1` (stereo not shown) [Compound 471, 3-(2-chloro-4′-(2-oxopyrimidin-1(2H)-yl)-[1,1′-biphenyl]-3-yl)piperidine-2,6-dione], the Dmax was 92.8% under setting [1] and more than 90% under setting [2]. The DC50 under setting [3] was 24.1 nM and the DC50 under setting [4] was not above 100 nM.

Turning to `O=C1CCC(c2cccc(-c3ccc(Cc4ncco4)cc3)c2Cl)C(=O)N1` (stereo not shown) [Compound 472, 3-(2-chloro-4′-(oxazol-2-ylmethyl)-[1,1′-biphenyl]-3-yl)piperidine-2,6-dione], the Dmax is 96.7% under setting [1] and more than 90% under setting [2]. The DC50 is, setting by setting: under setting [3], 8.25 nM; under setting [4], not above 100 nM.

Turning to `Cc1nc(Cc2ccc(-c3cccc(C4CCC(=O)NC4=O)c3Cl)cc2)no1` (stereo not shown) [Compound 473, 3-(2-chloro-4′-((5-methyl-1,2,4-oxadiazol-3-yl)methyl)-[1,1′-biphenyl]-3-yl)piperidine-2,6-dione], the Dmax reads like this: under setting [1], 96.2%; under setting [2], more than 90%. The DC50 is 9.34 nM under setting [3] and not above 100 nM under setting [4].

As for `O=C1CCC(c2cccc(-c3cnc(-n4ccccc4=O)nc3)c2Cl)C(=O)N1` (stereo not shown) [Compound 474, 3-(2-chloro-3-(2-(2-oxopyridin-1(2H)-yl)pyrimidin-5-yl)phenyl)piperidine-2,6-dione], the Dmax by setting is: under setting [1], 35.3%; under setting [2], less than 60%. Further, the DC50 was not below 10000 nM under setting [3] and more than 1000 nM under setting [4].

`CN(C(=O)c1ccn(C)n1)c1ccc(-c2cccc(C3CCC(=O)NC3=O)c2Cl)cc1` (stereo not shown) [Compound 475, N-(2′-chloro-3′-(2,6-dioxopiperidin-3-yl)-[1,1′-biphenyl]-4-yl)-N, 1-dimethyl-1H-pyrazole-3-carboxamide]: the maximal degradation (Dmax) by setting is: under setting [1], 73.2%; under setting [2], 60 to 90%. Further, the 50% degradation concentration (DC50) runs as follows: under setting [3], 98.9 nM; under setting [4], not above 100 nM.

Regarding `O=C1CCC(c2cccc(-c3ccc(N4CCCCC4C(F)(F)F)cc3)c2Cl)C(=O)N1` (stereo not shown) [Compound 476], the Dmax under setting [1] was 84% and the greatest degradation seen (Dmax) under setting [2] lay within 60 to 90%. Besides, the DC50 by setting is: under setting [3], 397 nM; under setting [4], 100 to 1000 nM.

With `O=C1CCC(c2cccc(-c3ccc(-n4ccccc4=O)nc3)c2Cl)C(=O)N1` (stereo not shown) [Compound 477, 3-(2-chloro-3-(2-oxo-2H-[1,2′-bipyridin]-5′-yl)phenyl)piperidine-2,6-dione], the Dmax reads like this: under setting [1], 88.7%; under setting [2], 60 to 90%. For the same compound, the DC50 was 65.6 nM under setting [3] and not above 100 nM under setting [4].

Take `O=C1CCC(c2cccc(-c3ccc(N4C(=O)CC5CC54)cc3)c2Cl)C(=O)N1` (stereo not shown) [Compound 478, 3-(2-chloro-4′-(3-oxo-2-azabicyclo[3.1.0]hexan-2-yl)-[1,1′-biphenyl]-3-yl)piperidine-2,6-dione]: the Dmax by setting is: under setting [1], 70.5%; under setting [2], 60 to 90%. In addition, the DC50 was 291 nM under setting [3] and 100 to 1000 nM under setting [4].

With `Cn1ccc(COc2ncc(-c3cccc(C4CCC(=O)NC4=O)c3Cl)cn2)n1` (stereo not shown) [Compound 479, 3-(2-chloro-3-(2-((1-methyl-1H-pyrazol-3-yl)methoxy)pyrimidin-5-yl)phenyl)piperidine-2,6-dione], the Dmax was 31% under setting [1] and less than 60% under setting [2]. For the same compound, the DC50 was not below 10000 nM under setting [3] and more than 1000 nM under setting [4].

For the compound `Cn1ccc(Cc2nn(C)c3cc(-c4cccc(C5CCC(=O)NC5=O)c4Cl)ccc23)n1` (stereo not shown) [Compound 480, 3-(2-chloro-3-(1-methyl-3-((1-methyl-1H-pyrazol-3-yl)methyl)-1H-indazol-6-yl)phenyl)piperidine-2,6-dione], the Dmax was 96.7% under setting [1] and more than 90% under setting [2]. The 50% degradation concentration (DC50) was 8.08 nM under setting [3] and not above 100 nM under setting [4].

Turning to `O=C1CCC(c2cccc(-c3ccc(N4C(=O)C5CC4C5)cc3)c2Cl)C(=O)N1` (stereo not shown) [Compound 481, 3-(2-chloro-4′-{3-oxo-2-azabicyclo[2.1.1]hexan-2-yl}-[1,1′-biphenyl]-3-yl)piperidine-2,6-dione], the maximal degradation (Dmax) is, setting by setting: under setting [1], 46%; under setting [2], less than 60%. Moreover, the DC50 is, setting by setting: under setting [3], not below 10000 nM; under setting [4], more than 1000 nM.

Turning to `O=C1CCC(c2cccc(-c3ccc4[nH]ccc4c3)c2Cl)C(=O)N1` (stereo not shown) [Compound 482, 3-(2-chloro-3-(1H-indol-5-yl)phenyl)piperidine-2,6-dione], the Dmax under setting [1] turned out to be 91.7% and the Dmax under setting [2] was more than 90%. For the same compound, the DC50 is, setting by setting: under setting [3], 18.7 nM; under setting [4], not above 100 nM.

`O=C1CCC(c2cccc(-c3ccc4cc[nH]c4c3)c2Cl)C(=O)N1` (stereo not shown) [Compound 483, 3-(2-chloro-3-(1H-indol-6-yl)phenyl)piperidine-2,6-dione]: the Dmax was 88.1% under setting [5] and 60 to 90% under setting [6]. For the same compound, the DC50 runs as follows: under setting [7], 59.9 nM; under setting [8], not above 100 nM.

On to `O=C1CCC(c2cccc(-c3ccc4cn[nH]c4c3)c2Cl)C(=O)N1` (stereo not shown) [Compound 484, 3-(2-chloro-3-(1H-indazol-6-yl)phenyl)piperidine-2,6-dione], for which the Dmax by setting is: under setting [5], 78.4%; under setting [6], 60 to 90%. In addition, the DC50 under setting [7] was 220 nM and the 50% degradation concentration (DC50) under setting [8] was in the range of 100 to 1000 nM.

`O=C1CCC(c2cccc(-c3ccc4[nH]ncc4c3)c2Cl)C(=O)N1` (stereo not shown) [Compound 485, 3-[2-chloro-3-(1H-indazol-5-yl)phenyl]piperidine-2,6-dione]: the greatest degradation seen (Dmax) runs as follows: under setting [5], 89.7%; under setting [6], 60 to 90%. Further, the DC50 reads like this: under setting [7], 41 nM; under setting [8], not above 100 nM.

Regarding `O=C1CCC(c2cccc(-c3ccc4c(c3)CCCN4)c2Cl)C(=O)N1` (stereo not shown) [Compound 486, 3-(2-chloro-3-(1,2,3,4-tetrahydroquinolin-6-yl)phenyl)piperidine-2,6-dione], the Dmax runs as follows: under setting [5], 96.2%; under setting [6], more than 90%. The 50% degradation concentration (DC50) is, setting by setting: under setting [7], 6.51 nM; under setting [8], not above 100 nM.

For `O=C1CCC(c2cccc(-c3ccc4c(c3)OCCN4)c2Cl)C(=O)N1` (stereo not shown) [Compound 487, 3-(2-chloro-3-(3,4-dihydro-2H-benzo[b][1,4]oxazin-7-yl)phenyl)piperidine-2,6-dione], the Dmax under setting [5] amounted to 82.8% and the Dmax under setting [6] was 60 to 90%. The DC50 runs as follows: under setting [7], 23.7 nM; under setting [8], not above 100 nM.

Turning to `CN1CCc2cc(-c3cccc(C4CCC(=O)NC4=O)c3Cl)ccc21` (stereo not shown) [Compound 488, 3-(2-chloro-3-(1-methylindolin-5-yl)phenyl)piperidine-2,6-dione], the Dmax is 91% under setting [5] and more than 90% under setting [6]. Further, the DC50 reads like this: under setting [7], 17.2 nM; under setting [8], not above 100 nM.

As to `Cn1ccc(CN2CCc3cc(-c4cccc(C5CCC(=O)NC5=O)c4Cl)ccc32)n1` (stereo not shown) [Compound 489, 3-(2-chloro-3-(1-((1-methyl-1H-pyrazol-3-yl)methyl)indolin-5-yl)phenyl)piperidine-2,6-dione], the Dmax by setting is: under setting [5], 97.8%; under setting [6], more than 90%. The DC50 was 2.84 nM under setting [7] and not above 100 nM under setting [8].

As for `O=C1CCC(c2cccc(-c3ccc4c(c3)CCN4)c2Cl)C(=O)N1` (stereo not shown) [Compound 490, 3-(2-chloro-3-(indolin-5-yl)phenyl)piperidine-2,6-dione], the maximal degradation (Dmax) under setting [5] was 74.5% and the Dmax under setting [6] was 60 to 90%. Also, the DC50 by setting is: under setting [7], 131 nM; under setting [8], 100 to 1000 nM.

As to `O=C1CCC(c2cccc(-c3ccc4c(c3)CCN4)c2F)C(=O)N1` (stereo not shown) [Compound 491, 3-(2-fluoro-3-(indolin-5-yl)phenyl)piperidine-2,6-dione], the Dmax was 88.5% under setting [5] and 60 to 90% under setting [6]. The 50% degradation concentration (DC50) under setting [7] came to 15.7 nM and the DC50 under setting [8] is not above 100 nM.

Turning to `O=C1CCC(c2cccc(-c3ccc4c(c3)CCC(=O)N4)c2Cl)C(=O)N1` (stereo not shown) [Compound 492, 3-(2-chloro-3-(2-oxo-1,2,3,4-tetrahydroquinolin-6-yl)phenyl)piperidine-2,6-dione], the Dmax by setting is: under setting [5], 94.3%; under setting [6], more than 90%. Besides, the DC50 runs as follows: under setting [7], 10.7 nM; under setting [8], not above 100 nM.

For the compound `O=C1CCC(c2cccc(-c3ccc4c(c3)CC(=O)N4)c2Cl)C(=O)N1` (stereo not shown) [Compound 493, 3-(2-chloro-3-(2-oxoindolin-5-yl)phenyl)piperidine-2,6-dione], the Dmax is 75.7% under setting [5] and 60 to 90% under setting [6]. Moreover, the DC50 by setting is: under setting [7], 502 nM; under setting [8], 100 to 1000 nM.

The term Dmax denotes the largest share of the target that was removed. For orientation: DC50 means the concentration giving 50% degradation.

Values taken from patent US12257247B2 (Monte Rosa Therapeutics AG, priority 2023, dated 2025).
